Here are results for 37 compounds from patent US5516936A, “Inhibitors of kynureninase” (University of Georgia Research Foundation, Inc., priority 1993, dated 1996).

One experiment addresses T1, Kynureninase (Pseudomonas fluorescens, UniProt P83788).
T1 construct: Bacterial kynureninase was prepared from cells of Pseudomonas fluorescens; endogenous in cells; partially purified by DEAE-cellulose and ammonium sulfate
T1 sequence (P83788 1-416): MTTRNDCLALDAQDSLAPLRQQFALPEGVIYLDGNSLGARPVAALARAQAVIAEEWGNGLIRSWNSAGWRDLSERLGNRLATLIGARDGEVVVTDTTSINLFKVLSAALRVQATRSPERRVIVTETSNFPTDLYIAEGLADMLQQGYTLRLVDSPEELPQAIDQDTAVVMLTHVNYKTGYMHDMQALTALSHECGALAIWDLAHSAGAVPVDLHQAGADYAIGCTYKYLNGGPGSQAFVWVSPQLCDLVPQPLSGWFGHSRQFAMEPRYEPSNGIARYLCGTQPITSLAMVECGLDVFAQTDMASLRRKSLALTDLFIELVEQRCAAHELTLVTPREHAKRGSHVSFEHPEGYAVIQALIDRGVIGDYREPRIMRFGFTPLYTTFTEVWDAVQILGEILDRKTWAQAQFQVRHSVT
The experiment in a line: Competitive inhibition of kynureninase by S-aryl cysteines and S-aryl cysteine sulfones. Particulars: for Ki: Table 1; for inhibition (in words): bacterial kynureninase; for fold decrease in Ki value: relative to unsubstituted S-phenyl-L-cysteine. It counts as biochemical. As for the experimental part: Bacterial kynureninase was prepared from cells of Pseudomonas fluorescens (ATCC 11250, for example) essentially as described by .Hayaishi and Stanier (1952) J. Biol. Chem. 195:735-740. Cells were grown on a minimal medium containing 0.1% L-tryptophan as the sole carbon and nitrogen source.
From 100 1 of medium, grown for 18 h at 30° C. 230 g of wet cell paste was obtained. The cells were suspended in 1 of 0.01M potassiumphosphate, pH 7.0, and disrupted by 2 passages through a Manton-Gaulin homogenizer. After centrifugation of the cell extract for 1 h at 10000 g, the enzyme was partially purified by ion-exchange chromatography on DEAE-cellulose and ammonium sulfate precipitation.
Kynureninase activity was measured at 25° C. by following the decrease in absorbance at 360 nm (ε=-4500M^-1 cm^-1). A typical assay mixture contained 0.4 mM L-kynurenine in 0.04M potassium phosphate, pH 7.8, containing 40 μM pyridoxal-5'-phosphate, at 25° C. The reactions of S-aryl cysteines and S-aryl cysteine sulfones with kynureninase were performed using a spectrophotometric coupled assay with lactate dehydrogenase and NADH, by monitoring a decrease in absorbance due to pyruvate formation. A typical assay mixture contained 30 μl lactate dehydrogenase solution (2 mg/ml), 0.1 mM NADH, 40 μM pyridoxal-5'-phosphate, 0.04M tris.HCl buffer, pH 7.8, with varying concentrations of the compounds. The competitive inhibition of these compounds was measured by variation of L-kynurenine concentrations at several fixed values of the inhibitor. Km and Vmax values were calculated by fitting of initial rate data to the Michaelis-Menten equation with ENZFITTER (Elsevier) on a Z-286 personal computer. KI values were determined from the equation:
v=Vmax[S]/ (Km (1+[I]/Ki)+[S]

In a further experiment the target is T2, rat liver kynureninase (Rattus norvegicus, UniProt P70712).
T2 construct: host or cells: rat liver
T2 sequence (P70712 1-464): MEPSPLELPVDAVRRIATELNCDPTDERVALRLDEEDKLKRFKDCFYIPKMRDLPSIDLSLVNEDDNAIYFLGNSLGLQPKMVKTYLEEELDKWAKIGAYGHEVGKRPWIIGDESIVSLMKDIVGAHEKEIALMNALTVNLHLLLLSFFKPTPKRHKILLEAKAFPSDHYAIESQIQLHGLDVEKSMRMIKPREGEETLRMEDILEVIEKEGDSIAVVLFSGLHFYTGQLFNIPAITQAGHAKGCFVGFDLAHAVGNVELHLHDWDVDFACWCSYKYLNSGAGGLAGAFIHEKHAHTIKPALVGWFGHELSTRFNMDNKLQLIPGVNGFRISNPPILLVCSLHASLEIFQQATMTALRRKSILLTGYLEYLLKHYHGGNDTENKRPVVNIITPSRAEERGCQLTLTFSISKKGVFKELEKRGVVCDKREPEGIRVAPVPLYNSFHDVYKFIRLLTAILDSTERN
The following applies: Wiss and Fuchs (1950); cited from earlier work.

Experiment [1] has as its system bacterial kynureninase. Particulars: Hayaishi (1955); cited from earlier work.
In experiment [2] the test system is kynureninase of P. fluorescens. The following applies: cited from earlier work.
Experiment [3] deals with bacterial kynureninase. Particulars: Kishore (1984); cited from earlier work.
The test system of experiment [4] is bacterial kynureninase. Particulars: Tanizawa and Soda (1979); cited from earlier work.
Setting [5] is: competitive inhibition vs L-kynurenine, pH 7.8, 25° C., footnote 1: 0.07 is an upper limit, read-out: Ki.

As usually defined, the Ki is the dissociation constant of the complex between target and ligand, obtained from inhibition or displacement. Broadly, the Km is the substrate concentration at which the rate is half of its maximum.

Like-named read-outs stand apart in the source and are kept apart here.

In the case of `N[C@@H](CS(=O)(=O)c1ccccc1[N+](=O)[O-])C(=O)O`, the Ki at Kynureninase (setting [5]) was determined as 23 µM.
For `N[C@@H](CS(=O)(=O)c1ccc([N+](=O)[O-])cc1)C(=O)O`, the Ki at Kynureninase (setting [5]) came to 12 µM.
Same read-out and setting: the result for `Nc1ccc(SC[C@H](N)C(=O)O)cc1` reads 140 µM; that for `Nc1ccc(S(=O)(=O)C[C@H](N)C(=O)O)cc1`, 8.5 µM.
Take `CC(=O)CC(N)C(=O)O` (centres unmarked) [2-aminolevulinic acid]: the “reaction with rat liver kynureninase to produce alanine (in words)” value (“reaction with rat liver kynureninase” for short) on rat liver kynureninase is “reacted with rat liver kynureninase”.
For `Nc1c(O)cccc1C(=O)C[C@H](N)C(=O)O` [3-hydroxy-L-kynurenine, α,2-diamino-3-hydroxy-γ-oxobenzenebutanoic acid], the “reaction with rat liver kynureninase” value on rat liver kynureninase is recorded as “reacted with rat liver kynureninase”. Besides, the “substrate of bacterial kynureninase (in words)” value with bacterial kynureninase [1] is listed as “substrates”. For the same compound, in experiment [2] (Tanizawa and Soda (1979)), the Michaelis-Menten constant (Km) was 200 µM and the “substrate of kynureninase (in words)” value is “substrates”.
Take `COc1cccc(C(=O)C[C@H](N)C(=O)O)c1N` [3-methoxy-L-kynurenine]: in the experiment with bacterial kynureninase [1], the “substrate of bacterial kynureninase (in words)” value is “do not react with bacterial kynureninase”.
For the compound `Nc1cc(F)ccc1C(=O)C[C@H](N)C(=O)O` [4-fluoro-L-kynurenine], the “substrate of kynureninase (in words)” value in experiment [2] (Tanizawa and Soda (1979)) was “substrates”.
For `Nc1ccc(F)cc1C(=O)C[C@H](N)C(=O)O` [5-fluoro-L-kynurenine], in experiment [2] (Tanizawa and Soda (1979)), the “substrate of kynureninase (in words)” value is listed as “substrates”.
As to `Nc1ccc(O)cc1C(=O)C[C@H](N)C(=O)O` [5-hydroxy-L-kynurenine], the “substrate of bacterial kynureninase (in words)” value in the experiment with bacterial kynureninase [1] is listed as “substrates”. Also, in experiment [2] (Tanizawa and Soda (1979)), the “substrate of kynureninase (in words)” value is given as “substrates”.
Regarding `Cc1ccc(N)c(C(=O)C[C@H](N)C(=O)O)c1` [5-methyl-L-kynurenine], the “substrate of kynureninase (in words)” value in experiment [2] (Tanizawa and Soda (1979)) is “substrates”.
On to `Nc1ccccc1C(=O)C[C@@H](N)C(=O)O` [D-kynurenine], for which the “substrate of kynureninase (in words)” value in experiment [2] (Tanizawa and Soda (1979)) was “not substrates”.
`NC(=O)C[C@H](N)C(=O)O` [L-asparagine]: in experiment [2] (Tanizawa and Soda (1979)), the “substrate of kynureninase (in words)” value is given as “not substrates”.
With `Nc1ccccc1C(=O)C[C@H](N)C(=O)O` [L-kynurenine, α,2-diamino-γ-oxobenzenebutanoic acid], the “reaction with rat liver kynureninase” value on rat liver kynureninase is given as “reacted with rat liver kynureninase”. Besides, the Km in experiment [2] (Tanizawa and Soda (1979)) was 35 µM.
In the case of `N[C@@H](COS(=O)(=O)O)C(=O)O` [L-serine O-sulfate], in the experiment with bacterial kynureninase [3], the “inactivation of kynureninase (in words)” value was “inactivated kynureninase”; the “reaction with kynureninase (in words)” value is “react with kynureninase to give pyruvate and ammonia”.
With `N[C@@H](CC(=O)c1ccccc1NC=O)C(=O)O` [N'-formyl-L-kynurenine], the “substrate of bacterial kynureninase (in words)” value in the experiment on bacterial kynureninase [1] is reported as “not a substrate”. Further, in experiment [2] (Tanizawa and Soda (1979)), the “substrate of kynureninase (in words)” value is recorded as “substrates”. For the same compound, the Km in experiment [2] (bacterial kynureninase) was 2200 µM.
Turning to `Nc1ccccc1S(=O)(=O)C[C@H](N)C(=O)O` [S-(2-aminophenyl)-L-cysteine sulfone], the Ki on Kynureninase (setting [5]) is no more than 0.07 µM; on Kynureninase (read-out: Ki), roughly 0.07 µM. The “inhibition (in words)” value on Kynureninase is given as “considerably more potent inhibitor of kynureninase”.
Consider `Nc1ccccc1SC[C@H](N)C(=O)O` [S-(2-aminophenyl)-L-cysteine], for which the Ki on Kynureninase (setting [5]) turned out to be 2.5 µM; at Kynureninase (read-out: Ki value) it was 2.2 µM. The “fold decrease in Ki value” on Kynureninase is 318 fold.
As for `N[C@@H](CSC(=O)c1ccccc1)C(=O)O` [S-benzoyl-L-cystsine], in experiment [2] (Tanizawa and Soda (1979)), the “substrate of kynureninase (in words)” value is “not substrates”.
In the case of `N[C@@H](CS(=O)(=O)c1ccccc1)C(=O)O` [S-phenyl-L-cysteine sulfone], the Ki at Kynureninase (setting [5]) and on Kynureninase (read-out: Ki value) was 3.9 µM in each case. In addition, the “fold decrease in Ki value” on Kynureninase came to 180 fold.
Turning to `N[C@@H](CSc1ccccc1)C(=O)O` [S-phenyl-L-cysteine], the Ki on Kynureninase (setting [5]) and on Kynureninase (read-out: Ki value) was 700 µM in each case. The “inhibition (in words)” value at Kynureninase is recorded as “very weak inhibitor”.
`O=Cc1ccccc1` [benzaldehyde]: the “inhibition of bacterial kynureninase (in words)” value in the experiment on bacterial kynureninase [4] is on record as “inhibitors”.
As for `Nc1ccccc1C(O)C[C@H](N)C(=O)O` (stereo partly drawn) [dihydrokynurenine, α,2-diamino-γ-hydroxybenzenebutanoic acid], in experiment [2] (Tanizawa and Soda (1979)), the Michaelis-Menten constant (Km) was 67 µM, the “Vmax / reactivity relative to L-kynurenine” value is on record as “about 65%” and the “substrate of kynureninase (in words)” value was “substrate”.
Take `CC(=O)OC[C@H](N)C(=O)O` [o-acetyl-L-serine]: in the experiment on bacterial kynureninase [3], the “inactivation of kynureninase (in words)” value is listed as “inactivated kynureninase”; the “reaction with kynureninase (in words)” value is “react with kynureninase to give pyruvate and ammonia”.
Turning to `CC(=O)c1ccccc1N` [o-aminoacetophenone], the “inhibition of bacterial kynureninase (in words)” value with bacterial kynureninase [4] is on record as “inhibitors”.
For the compound `CC(O)CC(N)C(=O)O` (stereo not drawn) [α-amino-γ-hydroxypentanoic acid], the “reaction with rat liver kynureninase” value on rat liver kynureninase is reported as “reacted with rat liver kynureninase”.
With `N[C@@H](CC(=O)c1cccc(O)c1)C(=O)O` [β-(m-hydroxybenzoyl)-L-alanine], the “substrate of bacterial kynureninase (in words)” value in the experiment with bacterial kynureninase [1] is listed as “do not react with bacterial kynureninase”.
In the case of `Nc1ccccc1C(=O)CCC(=O)O` [β-(o-aminobenzoyl)propanoic acid], the “substrate of bacterial kynureninase (in words)” value in the experiment with bacterial kynureninase [1] is “do not react with bacterial kynureninase”.
Turning to `N[C@@H](CC(=O)c1ccccc1O)C(=O)O` [β-(o-hydroxybenzoyl)-L-alanine], the “substrate of bacterial kynureninase (in words)” value in the experiment with bacterial kynureninase [1] was “substrates”.
For the compound `N[C@@H](CC(=O)c1ccccc1[N+](=O)[O-])C(=O)O` [β-(o-nitrobenzoyl)-L-alanine], the “reaction with rat liver kynureninase” value on rat liver kynureninase is recorded as “did not”. Also, the “substrate of bacterial kynureninase (in words)” value with bacterial kynureninase [1] is recorded as “do not react with bacterial kynureninase”.
As for `Nc1ccc(C(=O)C[C@H](N)C(=O)O)cc1` [β-(p-aminobenzoyl)-L-alanine], the “substrate of bacterial kynureninase (in words)” value in the experiment on bacterial kynureninase [1] is on record as “do not react with bacterial kynureninase”.
Take `N[C@@H](CC(=O)c1ccccc1)C(=O)O` [β-benzoyl-L-alanine]: the “reaction with rat liver kynureninase” value at rat liver kynureninase is “reacted with rat liver kynureninase”. In addition, the “substrate of bacterial kynureninase (in words)” value with bacterial kynureninase [1] is listed as “substrates”. For the same compound, in experiment [2] (Tanizawa and Soda (1979)), the “substrate of kynureninase (in words)” value was “substrates”. For the same compound, the Km in experiment [2] (bacterial kynureninase) is 160 µM.
Turning to `O=C(O)CCC(=O)c1ccccc1` [β-benzoylpropanoic acid], the “substrate of bacterial kynureninase (in words)” value in the experiment with bacterial kynureninase [1] is “do not react with bacterial kynureninase”.
For the compound `N[C@@H](CCl)C(=O)O` [β-chloro-L-alanine], in the experiment with bacterial kynureninase [3], the “inactivation of kynureninase (in words)” value is “inactivated kynureninase”; the “reaction with kynureninase (in words)” value is “react with kynureninase to give pyruvate and ammonia”.
Turning to `N#CC[C@H](N)C(=O)O` [β-cyano-L-alanine], in the experiment with bacterial kynureninase [3], the “inactivation of kynureninase (in words)” value was “inactivated kynureninase”; the “reaction with kynureninase (in words)” value is “react with kynureninase to give pyruvate and ammonia”.
Consider `CC(O)C[C@H](N)C(=O)O` (stereo partly drawn) [γ-methyl-L-homoserine], for which the “reaction with rat liver kynureninase” value at rat liver kynureninase is “reacted with rat liver kynureninase”.
As for `N[C@@H](CC(O)c1ccccc1)C(=O)O` (stereo partly drawn) [γ-phenyl-L-homoserine], the “reaction with rat liver kynureninase” value at rat liver kynureninase was “reacted with rat liver kynureninase”.
